Data from patent US6440971B1, “Binuclear complex” (A+ Science Invest AB, priority 1997, dated 2002).
pIC50: −log10 of the molar value.

Key:
[1] = tested on: Lung carcinoma HBT182; assay: growth inhibition of tumour cell lines; conditions: read-out: half maximum growth inhibitory concentration (IC50), Δ,Δ-enantiomers of (I)-(IV), Δ-enantiomer of (V)
[2] = tested on: SUDHL 1; assay: growth inhibition of tumour cell lines; conditions: read-out: half maximum growth inhibitory concentration (IC50), Δ,Δ-enantiomers of (I)-(IV), Δ-enantiomer of (V)
[3] = tested on: LAMA; assay: growth inhibition of tumour cell lines; conditions: read-out: half maximum growth inhibitory concentration (IC50), Δ,Δ-enantiomers of (I)-(IV), Δ-enantiomer of (V)
[4] = tested on: calf thymus DNA; assay: sodium dodecylsulphate-driven dissociation of the DNA complex; assay type: binding; conditions: [NaCl]=159 mM
Procedure: While the association reaction is relatively insensitive to the ionic strength of the solution, the dissociation is much faster at physiological salt concentrations, however, the rate constant is still only 0.008 S^−1 at [NaCl]=159 mM.

[5] = tested on: DNA; assay: linear dichroism of complex bound to DNA; assay type: binding; conditions: 10 mM and 200 mM aqueous NaCl, [Ru]=5 μM, P/Ru=30; negative signals at 380 and 470 nm
Source text: The properties of the Δ,Δ enantiomer of (I) regarding DNA binding was then studied.
The amplitude of the negative signals 380 and 470 nm indicate bis-intercalation of the complex (Lincoln, P. et al. JACS 118 (1996) 2644).

| Compound | pIC50 [1] | pIC50 [2] | pIC50 [3] | dissociation rate constant [4] | DNA binding mode [5] |
| --- | --- | --- | --- | --- | --- |
| [Cl-].[Cl-].[Ru+2].c1ccc2nc3c4cccnc4c4ncccc4c3nc2c1.c1cnc2c(c1)ccc1cccnc12.c1cnc2c(c1)ccc1cccnc12 [(V), reference compound] | 4.42 | 4.41 | 4.37 |  |  |
| Δ,Δμ-[N,N′-bis(12-cyano-12,13-dihydro-11H-cyclopentadipyrido[b:3,2-h:2′,3′-j]phenazine-12-carbonyl)-1,4-diaminobutane N^4N^5,N^4,N^5′]-tetra(2,2′-bipyridine N^1,N^1′)diruthenium(4+)-tetrachloride [(II)] | 5.10 | 4.92 | 5.05 |  |  |
| μ-[N,N′-bi (12-cyano-12,13-dihydro-11H-cyclopentadipyrido[b:3,2-h:7′,3′-j]phenazine-12-carbonyl)-1,2-diaminoethane N^4,N^5,N^4′,N^5′]-tetra(2,2′-bipyridine N^1,N^1′)-diruthenium(4+)-tetrachloride [(IV)] | 5.00 | 4.66 | 4.80 |  |  |
| μ-[N,N′-bis(12-cyano-12,3-dihydro-11H-cyclopentadipyrido[b:3,2-h:2′,3′-j]phenazine-12-carbonyl)-1,2-diaminoethane N^4,N^5,N^4′,N^5′]-tetra(1,10-phenanthroline N^1,N^10)-diruthenium(4+)-tetrachloride [(III)] | 4.72 | 4.85 | 4.92 |  |  |
| μ-[N,N′-bis(12-cyano-12,13-dihydro-11H-cyclopentadipyrido[b:3,2-h:2′,3′-j]phenazine-12-carbonyl)-1,4-diaminobutane-N^4,N^5,N′^4,N′^5]-tetra (1,10-phenanthroline N^1,N^10) diruthenium(4+) -tetra-chloride [(I)] | 5.05 | 4.85 | 5.10 | 0.008 S^−1 | bis-intercalation |
